Tests used:
NOS2 = test: LPS-induced NOS2 protein expression in BV2 cells, Western blot; format: cell-based, mouse; conditions: diapocynin 10 μM 30 min pretreatment, LPS 1 μg/ml 24 hr, back to basal level or below
Protocol: (§1) Two cell models of neuroinflammation were used to evaluate the anti-neuroinflammatory property of diapocynin including the mouse BV2 microglial cell line, as well as primary microglia isolated from mouse brains. BV2 cells were obtained from the American Tissue Culture Collection. BV2 cells were maintained in RPMI containing 10% FBS and 100 units of pen/strep at 37° C. and 5% CO2. For treatments, RPMI containing 2% FBS and 100 units of pen/strep was used.
(§2) BV2 cell lysates containing equal amounts of protein were loaded in each lane and separated on a 10% SDS-PAGE gel. After separation, the protein was transferred to a nitrocellulose membrane. Non-specific binding sites were blocked with Li-cor blocking buffer for 45 min. The membranes were then treated with primary antibodies directed against NOS2 (mouse monoclonal 1:200) and p67phox (rabbit polyclonal 1:200). To confirm equal amounts of protein were loaded, membranes were also probed for β-actin with a β-actin antibody (dilution of 1:10,000). Secondary antibodies, donkey anti-mouse (Invitrogen) and conjugated anti-rabbit IgG (Rockland), were used at a dilution of 1:10,000 for 1 hr at room temperature. The membranes were imaged and captured using a Li-COR Odyssey infrared imaging system and software.

p67phox = test: LPS-induced p67phox protein expression in BV2 cells, Western blot; format: cell-based, mouse; conditions: diapocynin 10 μM 30 min pretreatment, LPS 1 μg/ml 24 hr, back to basal level or below
Protocol: as §1, §2

IBA-1 = IBA-1 expression in substantia nigra (microglial activation), immunostaining; format: in vivo, C57BL/6 mice; conditions: diapocynin 300 mg/kg gavage, 1 day pre-treatment + 4 days co-treatment with MPTP 25 mg/kg i.p.
Protocol: (§3) For checking inflammatory and oxidative stress markers, mice were gavaged diapocynin (300 mg/kg dose) 1 day before MPTP treatment (pre-treatment) and continued for another 4 days of co-treatment with MPTP. In the sub-acute MPTP regimen, MPTP (25 mg/kg) was injected intraperitoneally once per day from day 2 to day 7. Control mice received saline at the same dosage.
Four days after MPTP treatment, mice were perfused with 4% paraformaldehyde (PFA) and post-fixed with PFA and 30% sucrose, respectively. Next, fixed brains were cut into 30 μm sections and kept in 30% sucrose-ethylene glycol solutions at −20° C. On the day of staining, sections were rinsed with phosphate-buffered saline (PBS) and incubated with different primary antibodies, including anti-IBA-1 (DAKO, Carpinteria, Calif.), anti-GFAP (Millipore, Billerica, Mass.), anti-iNOS (Santa Cruz Biotechnology, Santa Cruz, Calif.), anti-3NT (Millipore), anti-4HNE (R&D Systems, Minneapolis, Minn.) and anti-gp91phox (Santa Cruz Biotechnology) for overnight at 4° C. Appropriate secondary antibodies (Alexa Fluor 488, 594, or 555 from Invitrogen, Carlsbad, Calif.) were used followed by incubation with 10 μg/ml Hoechst 33342 for 5 min at room temperature to stain the nucleus. Sections were viewed under a Nikon inverted fluorescence microscope (model TE-2000U; Nikon, Tokyo, Japan). […]

[1] = tested on: MPTP mouse model of Parkinson's Disease; test: HPLC analysis of striatal dopamine and its metabolites, MPTP mouse model (Example 3); format: in vivo, C57BL/6 mice; conditions: MPTP- and diapocynin-treated mice, diapocynin 300 mg/kg oral gavage, MPTP 25 mg/kg i.p.
Protocol: Six- to 8-week-old C57BL/6 mice weighing 24 to 28 g were housed in standard conditions of constant temperature (22±1° C.), humidity (relative, 30%), and a 12-h light/dark cycle. Mice were allowed free access to food and water. Use of the animals and protocol procedures were approved and supervised by the Committee on Animal Care at Iowa State University (Ames, Iowa). For neurodegeneration studies, mice either received diapocynin (300 mg/kg dose) by oral gavage for 1 day (pre-treatment before MPTP administration), 5 days (co-treatment with MPTP), or 7 days (post-treatment after MPTP).
as §3
Striatal dopamine (DA), DOPAC and HVA levels were quantified by high-performance liquid chromatography (HPLC) with electrochemical detection. Samples were prepared and quantified as described previously (48, 56). In brief, 7 days after MPTP injection mice were sacrificed, striata were collected and stored at −80° C. On the day of analysis, neurotransmitters from striatal tissues were extracted using an antioxidant extraction solution (0.1 M perchloric acid containing 0.05% Na2EDTA and 0.1% Na2S2O5) and isoproterenol (as an internal standard). The extracts were filtered in 0.22 μm spin tubes, and 20 μl of the samples were loaded for analysis. DA, DOPAC and HVA were separated isocratically on a reversed-phase column with a flow rate of 0.6 ml/min. An HPLC system with an automatic sampler equipped with refrigerated temperature control (model 542; ESA, Inc., Bedford, Mass.) was used for HPLC analysis. The electrochemical detection system consisted of a Coulochem (model 5100A, ESA, Inc.) with a microanalysis cell (model 5014A, ESA, Inc.) and a guard cell (model 5020, ESA, Inc.). […]

COc1cc(C(C)=O)cc(-c2cc(C(C)=O)cc(OC)c2O)c1O [diapocynin]
reducing LPS-induced NOS2 protein expression (NOS2): extremely effective
reducing LPS-induced p67phox protein expression (p67phox): extremely effective
IBA-1 protein expression in substantia nigra (IBA-1): inhibition
striatal DOPAC levels [1]: significant preservation
striatal HVA levels [1]: significant preservation
decrease of dopamine levels in striatum ([1]; 7 days after MPTP): less than 40%
